According to ChEMBL document CHEMBL5244219, “Recent developments of quinolone-based derivatives and their activities against Escherichia coli” (Eur J Med Chem, 2018):
≈ marks a conversion by molar mass, not a printed value. Each block holds one compound with its values, some of them ahead of it.

What was measured:
Escherichia coli [1] = test: Antibacterial activity against Escherichia coli DC0 assessed as bacterial growth inhibition by agar dilution method; format: functional
Escherichia coli [2] = test: Antibacterial activity against Escherichia coli DC2 assessed as bacterial growth inhibition by agar dilution method; format: functional
[3] = AUC in marmoset at 3 mg/kg, iv; format: ADME, organism-based; parameters: dose 3 mg/kg, route iv; conditions: callitrichinae sp., in vivo
[4] = Half life in marmoset at 3 mg/kg, iv; format: ADME, organism-based; conditions: callitrichinae sp., in vivo
[5] = Half life in mouse at 20 mg/kg, po; format: ADME, organism-based; conditions: in vivo
[6] = Cmax in mouse at 20 mg/kg, po; format: ADME, organism-based; parameters: dose 20 mg/kg, route po; conditions: in vivo
[7] = AUC(0 to infinity) in mouse at 20 mg/kg, po; format: ADME, organism-based; parameters: dose 20 mg/kg, route po; conditions: in vivo
Escherichia coli [8] = test: Antibacterial activity against Escherichia coli KC-14 assessed as bacterial growth inhibition; format: functional
Escherichia coli [9] = test: Antibacterial activity against Escherichia coli KC-14 infected in po dosed mouse assessed as bacterial growth inhibition; format: functional; conditions: Escherichia coli, KC-14, po, read-out: ED50
Escherichia coli [10] = test: Antibacterial activity against Escherichia coli ATCC 35218 assessed as bacterial growth inhibition incubated for 18 hrs by agar dilution method; format: functional
Escherichia coli [11] = test: Antibacterial activity against Escherichia coli assessed as bacterial growth inhibition incubated for 18 hrs by twofold serial dilution assay; format: functional
Escherichia coli [12] = test: Antibacterial activity against Escherichia coli NIHJ JC-2 assessed as bacterial growth inhibition; format: functional
Escherichia coli [13] = test: Antibacterial activity against Escherichia coli 2010-05 assessed as bacterial growth inhibition measured after 24 hrs by agar dilution method; format: functional
Escherichia coli [14] = test: In vivo antibacterial activity against Escherichia coli H560 infected in sc dosed CD-1 mouse assessed as bacterial growth inhibition; format: functional; conditions: read-out: PD50
Escherichia coli [15] = test: Antibacterial activity against Escherichia coli NCTC 10419 assessed as bacterial growth inhibition; format: functional
Escherichia coli [16] = test: Antibacterial activity against Escherichia coli assessed as bacterial growth inhibition; format: functional
Escherichia coli [17] = test: Antibacterial activity against Escherichia coli H560 assessed as bacterial growth inhibition; format: functional
Escherichia coli [18] = test: Antibacterial activity against Escherichia coli 2010-29 assessed as bacterial growth inhibition measured after 24 hrs by agar dilution method; format: functional
Escherichia coli [19] = test: Antibacterial activity against Escherichia coli assessed as bacterial growth inhibition by agar dilution method; format: functional
Escherichia coli [20] = test: Antibacterial activity against Escherichia coli assessed as bacterial growth inhibition by microdilution method; format: functional
Escherichia coli [21] = test: Antibacterial activity against Escherichia coli TolC assessed as bacterial growth inhibition; format: functional
Escherichia coli [22] = test: In vivo antibacterial activity against Escherichia coli NCTC 10419 infected in po dosed CF-mouse assessed as bacterial growth inhibition; format: functional, organism-based
Escherichia coli [23] = test: In vivo antibacterial activity against Escherichia coli H560 infected in po dosed CD-1 mouse assessed as bacterial growth inhibition; format: functional; conditions: read-out: PD50
Escherichia coli [24] = test: Antibacterial activity against Escherichia coli NCDC 134 assessed as bacterial growth inhibition; format: functional
Escherichia coli [25] = test: Antibacterial activity against Escherichia coli ATCC 8739 assessed as bacterial growth inhibition; format: functional
Escherichia coli [26] = test: Antibacterial activity against Escherichia coli ISF 432 assessed as bacterial growth inhibition; format: functional
Escherichia coli [27] = test: Antibacterial activity against Escherichia coli assessed as bacterial growth inhibition by broth microdilution method; format: functional
Escherichia coli [28] = test: Potency index, ratio of norfloxacin MIC to compound IC50 for antibacterial activity against Escherichia coli DH52; format: functional
Escherichia coli [29] = test: Potency index, ratio of norfloxacin MIC to compound IC50 for antibacterial activity against Escherichia coli JM109; format: functional
Escherichia coli [30] = test: Antibacterial activity against Escherichia coli JM109 assessed as bacterial growth inhibition; format: functional
Escherichia coli [31] = test: Potency index, ratio of ciprofloxacin MIC to compound IC50 for antibacterial activity against Escherichia coli DH52; format: functional; conditions: time 24 hrs
Escherichia coli [32] = test: Antibacterial activity against Escherichia coli DH52 assessed as bacterial growth inhibition; format: functional
Escherichia coli [33] = test: Potency index, ratio of ciprofloxacin MIC to compound IC50 for antibacterial activity against Escherichia coli JM109; format: functional
Escherichia coli [34] = test: Antibacterial activity against Escherichia coli DH5alpha assessed as bacterial growth inhibition; format: functional
Escherichia coli [35] = test: Antibacterial activity against Escherichia coli ATCC 25922 infected in iv dosed mouse assessed as bacterial growth inhibition; format: functional
Escherichia coli [36] = test: Antibacterial activity against Escherichia coli assessed as bacterial growth inhibition incubated for 18 hrs by agar dilution method; format: functional
Escherichia coli [37] = test: Antibacterial activity against Escherichia coli assessed as bacterial growth inhibition incubated for 18 to 20 hrs by agar dilution method; format: functional; conditions: time 18-20 hrs
Escherichia coli [38] = test: Antibacterial activity against Escherichia coli ATCC 25922 assessed as bacterial growth inhibition; format: functional
Escherichia coli [39] = test: Antibacterial activity against clinical isolate Escherichia coli assessed as bacterial growth inhibition incubated for 24 hrs by agar dilution method; format: functional

SMILES: CC(C)(O/N=C(\C(=O)N[C@@H]1C(=O)N2C(C(=O)[O-])=C(C[n+]3ccccc3)CS[C@H]12)c1csc(N)n1)C(=O)O [CEFTAZIDIME]
MIC (Escherichia coli [1]): 0.06 µg/mL (≈ 0.11 µM)
MIC (Escherichia coli [2]): 0.06 µg/mL (≈ 0.11 µM)
AUC [3]: 14000 ng·h/mL
half-life [4]: 0.7 h

half-life [5]: 1.5 h
Cmax [6]: 4400 ng/mL
AUC(0-inf) [7]: 6900 ng·h/mL
MIC (Escherichia coli [8]): 0.05 µg/mL (≈ 0.131 µM)
SMILES: CN1CCN(c2cc3c(cc2F)c(=O)c(C(=O)O)c2n3C(CF)S2)CC1 (configuration not stated)
ED50 (Escherichia coli [9]): 0.85 mg/kg

MIC (Escherichia coli [10]): < 0.008 µg/mL
SMILES: COc1cccc(CO/N=C2\CCN(c3c(F)cc4c(=O)c(C(=O)O)cn(C5CC5)c4c3OC)CC2N)c1 (configuration not stated)

SMILES: O=C(O)c1cn(C2CC2)c2cc(N3CCNCC3)c(F)cc2c1=O [CIPROFLOXACIN]
MIC (Escherichia coli [11]): ≤ 0.015 µg/mL
MIC (Escherichia coli [12]): 0.0063 µg/mL (≈ 0.019 µM)
MIC (Escherichia coli [13]): 64 µg/mL (≈ 193 µM)
ED50 (Escherichia coli [14]): 0.3 mg/kg
MIC (Escherichia coli [15]): 0.0011 µg/mL (≈ 0.00332 µM)
MIC (Escherichia coli [16]): 0.025 µg/mL (≈ 0.0754 µM)
MIC (Escherichia coli [17]): ≤ 0.003 µg/mL
MIC (Escherichia coli [18]): 64 µg/mL (≈ 193 µM)
MIC90 (Escherichia coli [19]): 4 µg/mL (≈ 12.1 µM)
MIC (Escherichia coli [20]): ≤ 0.03 µg/mL
MIC (Escherichia coli [21]): 8.21 µg/mL (≈ 24.8 µM)
EC50 (Escherichia coli [22]): 1.25 mg/kg
ED50 (Escherichia coli [23]): 1 mg/kg
ED50 (Escherichia coli [9]): 0.45 mg/kg
MIC (Escherichia coli [24]): 40 µg/mL (≈ 121 µM)

MIC (Escherichia coli [25]): 0.008 µg/mL (≈ 0.0205 µM)
MIC (Escherichia coli [26]): 0.008 µg/mL (≈ 0.0205 µM)
SMILES: Cc1c(N2CCc3ccccc3C2)c(N)cc2c(=O)c(C(=O)O)cn(C3CC3)c12

MIC (Escherichia coli [27]): 0.0625 µg/mL (≈ 0.235 µM)
SMILES: CCn1cc(C(=O)NN)c(=O)c2cc(Cl)ccc21

MIC (Escherichia coli [30]): 0.125 µg/mL (≈ 0.271 µM)
MIC (Escherichia coli [32]): 0.125 µg/mL (≈ 0.271 µM)
SMILES: Cc1c(N2CCN(c3nc4ccccc4[nH]3)CC2)c(F)cc2c(=O)c(C(=O)O)cn(C3CC3)c12
Ratio (Escherichia coli [28]): 2
Ratio (Escherichia coli [29]): 2
Ratio (Escherichia coli [31]): 2
Ratio (Escherichia coli [33]): 2

MIC50 (Escherichia coli [34]): > 64 µg/mL
MIC50 (Escherichia coli [21]): > 1.41 µg/mL
SMILES: CC(C)=CCc1c(C)[nH]c2ccccc2c1=O

half-life [5]: 4.9 h
Cmax [6]: 840 ng/mL
AUC(0-inf) [7]: 2700 ng·h/mL
MIC (Escherichia coli [8]): 0.1 µg/mL (≈ 0.254 µM)
SMILES: COc1c(N2CCN(C)CC2)c(F)cc2c(=O)c(C(=O)O)c3n(c12)C(C)S3 (configuration not stated)
ED50 (Escherichia coli [9]): 1.28 mg/kg

MIC90 (Escherichia coli [19]): 4 µg/mL (≈ 9.38 µM)
SMILES: C[C@H]1NCc2cc(-c3ccc4c(=O)c(C(=O)O)cn(C5CC5)c4c3OC(F)F)ccc21 [GARENOXACIN]

SMILES: CN1CCN(c2cc3c(cc2F)c(=O)c(C(=O)O)cn3-c2ccc(O)cc2)CC1
ED50 (Escherichia coli [35]): 0.75 mg/kg

SMILES: N[C@@H]1CN(c2c(F)cc3c(=O)c(C(=O)O)cn([C@@H]4C[C@@H]4F)c3c2Cl)CC12CC2 [SITAFLOXACIN ANHYDROUS]
MIC (Escherichia coli [36]): ≤ 0.006 µg/mL

MIC50 (Escherichia coli [34]): > 64 µg/mL
MIC50 (Escherichia coli [21]): > 1.41 µg/mL
SMILES: CC(C)=CCC/C(C)=C/Cc1c(C)[nH]c2ccccc2c1=O

MIC (Escherichia coli [36]): ≤ 0.006 µg/mL
SMILES: COc1c(N2C[C@@H](N)C3(CC3)C2)c(F)cc2c(=O)c(C(=O)O)cn([C@@H]3C[C@@H]3F)c12

SMILES: COc1c(N2CCNC(C)C2)c(F)cc2c(=O)c(C(=O)O)cn(C3CC3)c12 (configuration not stated) [GATIFLOXACIN]
MIC (Escherichia coli [37]): 0.015 µg/mL (≈ 0.04 µM)
MIC (Escherichia coli [17]): 0.006 µg/mL (≈ 0.016 µM)
MIC90 (Escherichia coli [19]): 4 µg/mL (≈ 10.7 µM)
MIC (Escherichia coli [24]): 100 µg/mL (≈ 266 µM)

MIC (Escherichia coli [10]): < 0.008 µg/mL
SMILES: CO/N=C1\CN(c2nc3c(cc2F)c(=O)c(C(=O)O)cn3[C@@H]2C[C@@H]2F)CC1CN (some centres not stated)

MIC (Escherichia coli [17]): 0.006 µg/mL (≈ 0.0149 µM)
MIC90 (Escherichia coli [19]): 4 µg/mL (≈ 9.96 µM)
MIC (Escherichia coli [21]): 11.5 µg/mL (≈ 28.7 µM)
SMILES: COc1c(N2C[C@@H]3CCCN[C@@H]3C2)c(F)cc2c(=O)c(C(=O)O)cn(C3CC3)c12 [MOXIFLOXACIN]

MIC (Escherichia coli [38]): ≤ 0.06 µg/mL
SMILES: C[C@@H](O)[C@H]1C(=O)N2C(C(=O)O)=C(COC(=O)N[C@H]3CCN(c4c(F)cc5c(=O)c(C(=O)O)cn(C6CC6)c5c4F)C3)S[C@H]12

MIC90 (Escherichia coli [39]): 32 µg/mL (≈ 82.2 µM)
SMILES: CO/N=C1\CN(c2nc3c(cc2F)c(=O)c(C(=O)O)cn3C2CC2)CC1CN (configuration not stated) [GEMIFLOXACIN]

MIC (Escherichia coli [15]): 0.0002 µg/mL (≈ 0.000257 µM)
SMILES: COc1cc(Cc2cnc(/N=C3\C(=O)N(CN4CCN(c5cc6c(cc5F)c(=O)c(C(=O)O)cn6C5CC5)CC4)c4ccc(C)cc43)nc2N)cc(OC)c1OC
EC50 (Escherichia coli [22]): 0.62 mg/kg

MIC50 (Escherichia coli [34]): > 64 µg/mL
MIC50 (Escherichia coli [21]): > 1.41 µg/mL
SMILES: Cc1[nH]c2ccccc2c(=O)c1C

MIC (Escherichia coli [17]): ≤ 0.003 µg/mL
SMILES: NC1CCN(c2nc3c(cc2F)c(=O)c(C(=O)O)cn3-c2ccc(F)cc2F)C1 (configuration not stated) [TOSUFLOXACIN]
